# According to patent publication US7935719B2, “N-substituted-azacyclylamines as histamine-3 antagonists” (Wyeth LLC, priority 2006, dated 2011):
# Counter-ions that a name gives are not always drawn.
# How the values were obtained:
# [1] = molecular target: T1, Histamine Receptor H3 (Homo sapiens, UniProt Q9Y5N1); assay: Cyclic AMP assay for histamine receptor H3 antagonism activity; format: cell-based; design: expressed in transfected cells; settings: stable H3 cells, histamine plus 10 μM forskolin, 30 min at 30° C., HitHunter cAMP kit
# Experimental: Cyclic Amp Assay for Histamine Receptor H3 Antagonism Activity.
# Stable H3 cells are maintained in tissue culture flask in DMEM with high glucose, 10% FBS, 1× pen/strep, 500 ug/ml GY18, until experiment. Culture media is removed and cells are washed twice with PBS w/Ca+2 and Mg+2 plus 500 μM IBMX. Cells are then detached by tapping on the side of the flask and resuspend in the same buffer. Two thousand cells/well are incubated with 1 μM histamine plus 10 μM forskolin plus various concentrations of compounds in a total volume of 30 μL in 96 well plates for 30 min at 30° C. Final test compound concentrations range from 10^-4 M to 10-9.5 M at full log dilutions. Cyclic AMP levels are measured using HitHunter cAMP kit from Discoverx, cat#900041 according to manufacturer's instruction. Chemiluminescence signals are detected using Top Count (Packard). Cyclic AMP levels in control cells receiving 10 μM forskolin plus 100 nM histamine are considered 0%, and in cells receiving 10 uM forskolin plus 100 nM histamine plus 1 μM clobenpropit are considered 100%. Data are expressed as % control and analyzed using Prizm software. The Kb values are calculated using the following equation, KB=EC50 or IC50/[1+(ligand/Kd)].
# [2] = molecular target: T1, Histamine Receptor H3; assay: Methyl histamine binding in human histamine H3 receptor cell line; design: expressed in transfected cells; host or cells: HEK293T; settings: membranes of stably transfected HEK293T cells, radioligand 1 nM, Ki from IC50 by Cheng-Prusoff
# Experimental: Evaluation of Methyl Histamine Binding in Human Histamine H3 Receptor Cell Line
# The affinity of test compounds for the histamine 3 (H3) receptor is evaluated in the following manner. […] Cells are scraped from the plate, transferred to centrifuge tubes, washed one time in PBS by centrifugation in a Sorvall RT7 Plus centrifuge (2000 rpm 10 minutes, 4° C.). The resulting pellets are stored at −80° C. until ready for use. Cells are re-suspended in buffer (50 mM Tris pH=7.5) and placed in a Dounce homogenizer, douncing ten times to homogenize cells. The homogenate is spun down by centrifugation (Sorvall RT7 Plus, 1800 rpm 10 minutes, 4° C.). The supernatant is placed in a Corex tube and spun down by centrifugation (Sorvall RC 5c Plus, 17,000 rpm 20 minutes, 4° C.). The pellet is resuspended in buffer (50 mM Tris, pH 7.5). Protein concentration (ug/ul) is determined using the Micro-BCA Protein Determination. The binding assay is set up in a 96 well microtiter plate in a total volume of 250 uL. Non-specific binding is determined in the presence of 10 uM clobenpropit. The final radioligand concentration is 1 nM. The test compound is serially diluted using the Beckman Biomek2000 to a final approximate range of 100 uM to 100 pM. Membranes are suspended in buffer, homogenized in 2 bursts of ten seconds using a Vitris mechanical homogenizer set at power setting 5. Ten μg of membranes are added to each well. Following a one hour incubation at 30° C., the reaction is terminated by the addition of ice cold buffer and rapid filtration with a Packard Filtermate Harvester through a GF/B filter pre-soaked with 1% PEI for one hour. The plate is dried for one hour at 37° C. and 60 μL Microscint Scintillant is added to each well. The CPM per well is measured on a Packard Top Count NXT. Ki values are determined in nM. […] CPM values are expressed as % specific binding and plotted vs compound concentration. A curve is fitted using a four-parameter logistic fit and the IC50 value is determined. The Ki is calculated from this using the Cheng-Prusoff equation: […]=IC50/1+(L/Kd) where L=concentration of free radioligand used in the assay, and Kd is the dissociation constant of the radioligand for the receptor. L is determined for each experiment by counting an aliquot of the diluted radioligand (corresponding to that added to each well) and the Kd has previously been determined under identical conditions for this cell line/radioligand.
# T1 sequence (Q9Y5N1 whole entry): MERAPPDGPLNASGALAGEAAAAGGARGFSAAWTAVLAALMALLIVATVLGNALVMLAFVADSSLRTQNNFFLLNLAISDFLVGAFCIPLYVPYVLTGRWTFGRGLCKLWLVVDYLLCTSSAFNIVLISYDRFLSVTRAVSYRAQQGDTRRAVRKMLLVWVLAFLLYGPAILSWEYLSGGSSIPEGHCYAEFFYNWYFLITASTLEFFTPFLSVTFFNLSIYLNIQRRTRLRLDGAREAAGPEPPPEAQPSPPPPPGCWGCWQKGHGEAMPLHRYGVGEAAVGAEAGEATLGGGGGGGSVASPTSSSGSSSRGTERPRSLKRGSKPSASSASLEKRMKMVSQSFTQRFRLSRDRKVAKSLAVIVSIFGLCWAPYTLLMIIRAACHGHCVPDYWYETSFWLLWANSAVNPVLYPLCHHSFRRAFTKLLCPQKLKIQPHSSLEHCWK
Kb [1],Ki [2],SMILES
< 10 nM,< 10 nM,"O=C(c1ccc(-n2ccc3cccc(F)c32)cc1)N1CC[C@H](N2CCCC2)C1 [Example 39, (3′S)-1′-[4-(7-fluoro-1H-indol-1-yl)benzoyl]-1,3′-bipyrrolidine]"
< 10 nM,< 10 nM,"Cc1nc2ccccc2n1-c1ccc(C(=O)N2CC[C@H](N3CCCC(C)C3)C2)cc1 (stereo partly drawn) [Example 24, 2-methyl-1-(4-{[(3S)-3-(3-methylpiperidin-1-yl)pyrrolidin-1-yl]carbonyl}phenyl)-1H-benzimidazole]"
< 10 nM,< 10 nM,"COc1ccc2c(ccn2-c2ccc(C(=O)N3CC[C@H](N4CCCC4)C3)cc2)c1 [Example 33, (3′S)-1′-[4-(5-methoxy-1H-indol-1-yl)benzoyl]-1,3′-bipyrrolidine]"
< 10 nM,< 10 nM,"Cc1nc2ccccc2n1-c1ccc(C(=O)N2CC[C@H](N3CCC[C@H]3C)C2)cc1 [Example 21, (2R,3′S)-2-methyl-1′-[4-(2-methyl-1H-benzimidazol-1-yl)benzoyl]-1,3′-bipyrrolidine]"
< 10 nM,< 10 nM,"O=C(c1ccc(-n2ccc3c(F)cccc32)cc1)N1CC[C@H](N2CCCC2)C1 [Example 31, (3′S)-1′-[4-(4-fluoro-1H-indol-1-yl)benzoyl]-1,3′-bipyrrolidine]"
< 10 nM,< 10 nM,"N#Cc1ccc2c(ccn2-c2ccc(C(=O)N3CC[C@H](N4CCCC4)C3)cc2)c1 [Example 36, 1-{4-[(3′S)-1,3′-bipyrrolidin-1′-ylcarbonyl]phenyl}-1H-indole-5-carbonitrile]"
< 10 nM,< 10 nM,"C[C@H]1CCCN1[C@H]1CCN(C(=O)c2ccc(-n3cnc4ccccc43)cc2)C1 [Example 7, (2S,3′S)-1′-[4-(1H-benzimidazol-1-yl)benzoyl]-2-methyl-1,3′-bipyrrolidine]"
25.1 to 50 nM,< 10 nM,"O=C(c1ccc(-n2cnc3ccccc32)cc1)N1CC[C@H](N2CCCC2)C1 [Example 5, (3′S)-1′-[4-(1H-benzimidazol-1-yl)benzoyl]-1,3′-bipyrrolidine hydrochloride]"
< 10 nM,< 10 nM,"Cc1nc2ccccc2n1-c1ccc(C(=O)N2CC[C@H](N3CCC[C@@H]3C)C2)cc1 [Example 22, (2S,3′S)-2-methyl-1′-[4-(2-methyl-1H-benzimidazol-1-yl)benzoyl]-1,3′-bipyrrolidine]"
< 10 nM,< 10 nM,"O=C(c1ccc(-n2cnc3ccccc32)cc1)N1CCC(N2CCCC2)C1 (centres unmarked) [Example 2, 1′-[4-1H-benzimidazol-1-yl)benzoyl]-1,3′-bipyrrolidine hydrochloride]"
